Data set [1] relates to Staphylococcus aureus FDA 209PJC-1. In words: Antibacterial test, agar plate dilution method (MIC). The class given is cell-based. As to conditions: FDA209PJC1, MH agar, 37°C, 18 hours. The method, then:
(§1) The antibacterial activities were tested by an agar plate dilution method in accordance with the standard method of The Japanese Chemotherapy Society [Chemotherapy, Vol. 29, 76-79 (1981)].
(§2) A Mueller-Hinton (MH) agar liquid medium of a test microorganism was cultured overnight at 37°C and the resultant culture medium was diluted with a buffered saline gelatin (BSG) solution to contain approximately 10⁶ cells of the test microorganisms per milliliter, and then the diluted solution was inoculated with a micro-planter at the rate of approximately 5 microliters on a MH agar medium containing a test compound. This medium was then incubated at 37°C for 18 hours. The minimum inhibitory concentration (MIC) is determined as a minimum concentration in which no test microorganism could grow. It is noted here that the test organisms used were all standard strains.

The test system of data set [2] is Escherichia coli K12 C600. The data set is described as above. The class given is cell-based. As to conditions: K12C600, MH agar, 37°C, 18 hours. How it is done: as §1, §2
The test system of the next data set is Salmonella typhi 901. The data set is described as above. The class given is cell-based. The conditions noted are these: Salmonella enterica, 18 h. The method, then: as §1, §2
Data set [3] has as its system Staphylococcus aureus Terajima. The description is as above. The class given is cell-based. As to conditions: MH agar, 37°C, 18 hours. The method, then:
as §1, §2

Data set [4] concerns Salmonella schottmuelleri 8006. The data set is described as above. The class given is cell-based. The conditions noted are these: MH agar, 37°C, 18 hours. How it is done: as §1, §2
In data set [5] the test system is Morganella morganii IFO3848. Described as above. The conditions noted are these: MH agar, 37°C, 18 hours. The class given is cell-based. The method, then:
as §1, §2

The test system of data set [6] is Serratia marcescens IAM1184. The data set is described as above. The class given is cell-based. As to conditions: MH agar, 37°C, 18 hours. The method, then: as §1, §2
Data set [7] deals with Klebsiella pneumoniae PCI-602. The description is as above. The class given is cell-based. The conditions noted are these: PCI602, MH agar, 37°C, 18 hours. The method, then: as §1, §2
Data set [8] deals with Salmonella enteritidis G14. The description is as above. As to conditions: Salmonella enterica. The class given is cell-based. How it is done:
as §1, §2

The subject of data set [9] is Escherichia coli NIHJ JC-2. Described as above. The class given is cell-based. The conditions noted are these: NIHJJC2, MH agar, 37°C, 18 hours. The method, then: as §1, §2
Data set [10] has as its system Proteus mirabilis IFO3849. Described as above. The class given is cell-based. How it is done: as §1, §2
The test system of data set [11] is Providencia rettgeri IFO 3850. The data set is described as above. The class given is cell-based. As to conditions: IFO3850, MH agar, 37°C, 18 hours. The method, then: as §1, §2
Data set [12] concerns Micrococcus luteus ATCC9341. Described as above. The class given is cell-based. As to conditions: MH agar, 37°C, 18 hours. The method, then:
as §1, §2

Another data set deals with Proteus vulgaris HX-19. The description is as above. The class given is cell-based. The conditions noted are these: HX19, MH agar, 37°C, 18 hours. How it is done:
as §1, §2

Data set [13] has as its system Salmonella typhimurium IID971. The description is as above. As to conditions: Salmonella enterica, MH agar, 37°C, 18 hours. The class given is cell-based. The method, then: as §1, §2
For data set [14], the system named is Salmonella paratyphi 1015. Described as above. The class given is cell-based. As to conditions: Salmonella enterica, MH agar, 37°C, 18 hours. The method, then: as §1, §2
The test system of data set [15] is Pseudomonas aeruginosa IFO 3445. The data set is described as above. The conditions noted are these: IFO3445, MH agar, 37°C, 18 hours. The class given is cell-based. The method, then: as §1, §2
Data set [16] has as its system Staphylococcus aureus MS353. Described as above. The class given is cell-based. The conditions noted are these: MH agar, 37°C, 18 hours. How it is done:
as §1, §2

Data set [17] concerns Bacillus subtilis ATCC6633. Described as above. The class given is cell-based. As to conditions: MH agar, 37°C, 18 hours. The method, then: as §1, §2
Data set [18] relates to Streptococcus pyogenes Cook. Described as above. The class given is cell-based. As to conditions: MH agar, 37°C, 18 hours. How it is done: as §1, §2
For data set [19], the system named is Pseudomonas aeruginosa NCTC 10490. Described as above. The class given is cell-based. As to conditions: NCTC10490, MH agar, 37°C, 18 hours. The method, then: as §1, §2
The next data set deals with Enterobacter cloacae 963. The description is as above. The class given is cell-based. The conditions noted are these: MH agar, 37°C, 18 hours. The method, then: as §1, §2
The next data set deals with Proteus vulgaris OX-19. Described as above. The conditions noted are these: OX19, MH agar, 37°C, 18 hours. The class given is cell-based. The method, then:
as §1, §2

For data set [20], the system named is Enterobacter aerogenes ATCC1304. The description is as above. The class given is cell-based. As to conditions: Klebsiella aerogenes. How it is done:
as §1, §2

The subject of data set [21] is male mice of CrjCD(SD) strain. Nature of the data set: Toxicity study in mice, subcutaneous administration, observation for one week. The class given is in vivo. The conditions noted are these: 500 mg/kg, subcutaneously. The method, then: Toxicological studies were carried out using a group of 10 male mice of CrjCD(SD) strain weighing from 20 to 23 grams. A solution containing the carbapenem compound (11) of the present invention obtained by Example 3 was administered subcutaneously to the mice and subjected to observations for one week.

The target of data set [22] is T1, Swine Kidney Dehydropeptidase-I (DHP-I) (Sus scrofa, UniProt P22412).
T1 construct: made soluble by treatment with butanol and purified by the ammonium sulfate fraction method, thereby producing DHP-I enzyme; from tissue; host or cells: swine kidney
T1 sequence (P22412 17-384): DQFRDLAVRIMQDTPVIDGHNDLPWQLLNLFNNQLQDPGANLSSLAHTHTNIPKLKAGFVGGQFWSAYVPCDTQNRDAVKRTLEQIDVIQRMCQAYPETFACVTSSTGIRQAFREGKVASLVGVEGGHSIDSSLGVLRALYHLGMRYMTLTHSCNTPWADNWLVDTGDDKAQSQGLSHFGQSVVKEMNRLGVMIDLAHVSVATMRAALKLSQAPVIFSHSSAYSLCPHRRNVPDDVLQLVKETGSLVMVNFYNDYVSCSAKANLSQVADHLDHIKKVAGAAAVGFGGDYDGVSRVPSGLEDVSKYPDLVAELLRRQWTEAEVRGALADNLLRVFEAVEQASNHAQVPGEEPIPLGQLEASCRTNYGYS
Nature of the data set: Stability of test compounds against DHP-I by HPLC. The class given is in vitro ADME. The conditions noted are these: 37°C, 4.5 hours, Substrate Concentration: 100 µM. The method, then: The swine kidney (8 kg) was homogenized and the enzyme protein was allowed to precipitate. After a connective lipid was removed with acetone, the resultant material was made soluble by treatment with butanol and purified by the ammonium sulfate fraction method, thereby producing DHP-I enzyme from a 75 % ammonium sulfate fraction. The DHP-I enzyme was then adjusted to give an enzyme concentration of 25 mg/10 ml (phosphate buffer, pH 7.1), and divided into 1 ml portions. The portions were frozen and stored at -40°C or less until use. The test compound was adjusted in situ to give a concentration of 117µM with a 50 mM sodium phosphate buffer solution (pH =7.1). Glycyl dehydrophenylalanine (Gl-dh-Ph) and imipenem were employed as control compounds, and they were adjusted in situ each to give a concentration of 117µM with the same sodium phosphate buffer solution. The test compound according to the present invention and the control compounds were treated in substantially the same manner as (1) above. The incubation, however, was conducted at 37°C for 4.5 hours or for 24 hours. The degree of hydrolysis of the compounds each after the test periods was measured by the HPLC method.

In data set [23] the target is T1, Swine Kidney Dehydropeptidase-I (DHP-I). Nature of the data set: Hydrolysis activity against DHP-I enzyme substrate by late assay (decrease in absorbency). The conditions noted are these: final substrate concentration 100µM; 37°C, 10 minutes; pH 7.1. The class given is biochemical. The method, then: The swine kidney (8 kg) was homogenized and the enzyme protein was allowed to precipitate. After a connective lipid was removed with acetone, the resultant material was made soluble by treatment with butanol and purified by the ammonium sulfate fraction method, thereby producing DHP-I enzyme from a 75 % ammonium sulfate fraction. The DHP-I enzyme was then adjusted to give an enzyme concentration of 25 mg/10 ml (phosphate buffer, pH 7.1), and divided into 1 ml portions. The portions were frozen and stored at -40°C or less until use. Glycyl dehydrophenylalanine (Gl-dh-Ph) and imipenem were employed as control compounds, and they were adjusted in situ each to give a concentration of 117µM with the same sodium phosphate buffer solution. […] The solution was then incubated at 37°C for 10 minutes. The initial velocity of hydrolysis of the substrate was measured from a decrease in absorbency at a particular λmax of each of the substrates. A blank test was conducted in substantially the same manner as above by adding 0.2 ml of the sodium phosphate buffer solution (pH 7.1) to 1.2 ml of the above substrate.

In brackets after ≈: the same amount, converted by molar mass. Where two headings read alike, the source gives them in different places.

Data on three compounds can be found in patent EP0358085A1, “(1R,5S,6S)-6-[(R)-1-Hydroxyethyl]-1-methyl-2-[(1-alkyl-1,2,4-triazolium-2-yl)alkyl]-thio-carbapenem-3-carboxylic acid derivatives” (LEDERLE (JAPAN) LTD., priority 1988, dated 1990).

For orientation: MIC means the lowest concentration found to suppress growth.

In the case of `C[C@@H](O)[C@H]1C(=O)N2C(C(=O)[O-])=C(SCCn3cnc[n+]3C)[C@H](C)[C@H]12` [Compound (11), (1R,5S,6S)-6-[(R)-1-hydroxyethyl]-1-methyl-2-[2-(1-methyl-1,2,4-triazolium-2-yl)ethyl]thio-carbapenem-3-carboxylate], the MIC in [1] worked out at 0.1 µg/mL (≈ 0.284 µM); in data set [2], 0.78 µg/mL (≈ 2.21 µM); with Salmonella typhi 901 it was 0.05 µg/mL (≈ 0.142 µM); in data set [3], 0.025 µg/mL (≈ 0.0709 µM); in data set [4] it was 0.39 µg/mL (≈ 1.11 µM); in [5], 0.39 µg/mL (≈ 1.11 µM). Further, the MIC in data set [6] was 0.2 µg/mL (≈ 0.568 µM); in data set [7], 0.2 µg/mL (≈ 0.568 µM); in data set [8] (Salmonella enteritidis G14, MH agar, 37°C, 18 hours, read-out: MIC), 0.78 µg/mL (≈ 2.21 µM); in [9], 0.1 µg/mL (≈ 0.284 µM); in data set [10] (Proteus mirabilis IFO3849, MH agar, 37°C, 18 hours, read-out: MIC), 1.56 µg/mL (≈ 4.43 µM); in [11], 0.05 µg/mL (≈ 0.142 µM). The MIC came out at 0.1 µg/mL (≈ 0.284 µM) in [12]; 0.78 µg/mL (≈ 2.21 µM) against Proteus vulgaris HX-19; 0.2 µg/mL (≈ 0.568 µM) in data set [13]; 0.78 µg/mL (≈ 2.21 µM) in [14]; 1.56 µg/mL (≈ 4.43 µM) in data set [15]; 0.05 µg/mL (≈ 0.142 µM) in data set [16]. The MIC in [17] is 0.2 µg/mL (≈ 0.568 µM); in data set [18] it was 0.05 µg/mL (≈ 0.142 µM); in data set [19], 0.78 µg/mL (≈ 2.21 µM); in the data set on Enterobacter cloacae 963, 0.1 µg/mL (≈ 0.284 µM); against Proteus vulgaris OX-19 it was 0.78 µg/mL (≈ 2.21 µM); in data set [20] (Enterobacter aerogenes ATCC1304, MH agar, 37°C, 18 hours, read-out: MIC), 0.78 µg/mL (≈ 2.21 µM). Besides, in data set [21], the “toxicity: survival and abnormal observations” value was “alive without any abnormal observations”.

In the case of `C[C@@H](O)[C@H]1C(=O)N2C(C(=O)O)=C(SCCNC=N)C[C@H]12` [Imipenem, imipenem], the MIC in [1] was 0.013 µg/mL (≈ 0.0434 µM); in data set [2] it was 3.13 µg/mL (≈ 10.5 µM); in the data set with Salmonella typhi 901 it was 0.05 µg/mL (≈ 0.167 µM); in [3], < 0.006 µg/mL; in [4] it was 0.78 µg/mL (≈ 2.61 µM); in [5], 3.13 µg/mL (≈ 10.5 µM). Also, the MIC in [6] worked out at 0.2 µg/mL (≈ 0.668 µM); in data set [7], 0.2 µg/mL (≈ 0.668 µM); in [8] (ENTERITIDIS, 18 h), 1.56 µg/mL (≈ 5.21 µM); in data set [9], 0.1 µg/mL (≈ 0.334 µM); in data set [10] (Proteus mirabilis, IFO3849, 18 h), 6.25 µg/mL (≈ 20.9 µM); in data set [11] it was 0.05 µg/mL (≈ 0.167 µM). In addition, the MIC in data set [12] was < 0.006 µg/mL; in the data set with Proteus vulgaris HX-19, 3.13 µg/mL (≈ 10.5 µM); in data set [13] it was 0.2 µg/mL (≈ 0.668 µM); in data set [14], 1.56 µg/mL (≈ 5.21 µM); in data set [15], 0.78 µg/mL (≈ 2.61 µM); in data set [16] it was 0.013 µg/mL (≈ 0.0434 µM). For the same compound, the MIC is 0.025 µg/mL (≈ 0.0835 µM) in data set [17]; < 0.006 µg/mL in data set [18]; 0.39 µg/mL (≈ 1.3 µM) in data set [19]; 0.78 µg/mL (≈ 2.61 µM) against Enterobacter cloacae 963; 3.13 µg/mL (≈ 10.5 µM) in the data set on Proteus vulgaris OX-19; 1.56 µg/mL (≈ 5.21 µM) in data set [20] (ATCC1304, 18 h). Besides, the “DEGREES OF HYDROLYSIS BY DHP-I” value in data set [22] was found to be 77.6 µM. Besides, in data set [23], the “initial velocity of hydrolysis” value worked out at 0.56 µM/min.

Consider `NCC(=O)NC(=Cc1ccccc1)C(=O)O` [Gl-dh-Ph, Glycyl dehydrophenylalanine], for which the “initial velocity of hydrolysis” value in [23] came out at 17.4 µM/min.
